From US11352350B2, “IRAK degraders and uses thereof” (Kymera Therapeutics, Inc., priority 2018, dated 2022)
Where two headings read alike, the source gives them in different places.

How the values were obtained:
IRAK4 [1] = molecular target: T1, IRAK4 (Homo sapiens (Human), UniProt Q9NWZ3); assay: IRAK4 MSD degradation in OCI-LY10; type: cell-based
In short: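 OCI-LY10 cells treated with 8-point 1:3 dilutions (top 1 to 10 μM final) for 4 to 24 h at 37° C. Lysate IRAK4 measured by MSD sandwich immunoassay (2H9 capture, Y279 detection, SULFO-TAG anti-rabbit). DC50 from three-parameter logistic fit.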

IRAK4 [2] = molecular target: T1, IRAK4; assay: hPBMC IRAK4 degradation flow assay; type: cell-based; details: hPBMC monocyte
Procedure: hPBMC IRAK4 degradation flow assay. Frozen PBMCs were thawed into RPMI with 10% FBS and allowed to recover. On the same day as thawed, PBMCs were plated in 96 well plate, 90 uL per well. Compound plates were prepared and a 10 point, 5-fold dilution was performed with a final DMSO concentration of 0.1%. Compound 10 μL per well was added, sealed and incubated at 37° C., 5% C02 for 20 hours (for 4 hour treatment, compounds were prepared and added the following day). […] Cells were spun down and washed two times with PBS/0.5% BSA, aspirated to pellet and placed into −80° C. freezer until further processing for flow. On the flow run day, PBMC plates were thawed and samples were transferred to PCR plates. The pre-perm staining cocktail (CD3 Ax488/CD8 BUV805/CD14 BUV395/CD16/56 BV711/CD19 BV785) was added to samples and incubated for 30 minutes at room temperature. Samples were washed two times and permeabilized with methanol for 10 minutes at 4° C. […] Samples were washed two times with PBS/BSA and run on a BD LSRFortessa. Mononuclear cells are gated by SSCH/FSCH and single cells. Monocytes are then gated through CD14 positive gate and lymphocytes are gated through CD14 negative gate. To determine absolute DC50s and max degradation values, MFI values were normalized to DMSO max and 20 hour 10 μM min control. Twenty hour dose curves were calculated using a 4 parameter logistic regression curve fit, no constraints (Top doses were removed if hook effects were observed and the bottom was constrained to 0).

OCI-LY10 = assay: CTG Cell Viability Assay - OCI-LY10; type: cell-based, human; details: OCI-LY10, 4 days, read-out: CTG Cell Viability Assay - OCI-LY10: Average external-IC50
In short: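 OCI-LY10 cells exposed to 9-dose, 1:3 dilutions from 10 μM top (0.2% DMSO) for 4 days at 37° C, 5% CO2. Viability by CellTiter-Glo luminescence; IC50 from three-parameter logistic fit.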

[3] = OCI-LY10, 4 hrs, read-out: IRAK4 MSD degradation in OCI-LY10 at 4 hrs: DC50
[4] = 20 hrs, read-out: IRAK4 degradation in hPBMC monocyte: DC50
[5] = OCI-LY10, 4 hrs, MSD, read-out: IRAK4 MSD degradation in OCI-LY10 at 4 hrs: Average external-Abs DC50
[6] = 20 hr, flow assay, read-out: IRAK4 degradation in hPBMC monocyte at 20 hr: Average external Abs DC50

T1 sequence (Q9NWZ3 whole entry): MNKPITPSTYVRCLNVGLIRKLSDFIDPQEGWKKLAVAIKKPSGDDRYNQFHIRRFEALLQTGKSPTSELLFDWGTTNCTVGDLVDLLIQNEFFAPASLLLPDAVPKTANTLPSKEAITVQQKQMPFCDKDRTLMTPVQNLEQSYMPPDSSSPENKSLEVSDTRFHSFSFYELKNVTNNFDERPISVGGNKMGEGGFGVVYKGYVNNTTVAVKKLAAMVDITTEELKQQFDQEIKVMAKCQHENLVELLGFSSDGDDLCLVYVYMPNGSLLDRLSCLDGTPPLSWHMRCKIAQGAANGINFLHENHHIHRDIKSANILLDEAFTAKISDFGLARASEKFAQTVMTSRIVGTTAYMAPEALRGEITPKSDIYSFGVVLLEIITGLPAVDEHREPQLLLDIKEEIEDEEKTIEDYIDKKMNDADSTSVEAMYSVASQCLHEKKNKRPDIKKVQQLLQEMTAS

SMILES | DC50 (IRAK4 [1]; [3]) [nM] | DC50 (IRAK4 [2]; [4]) [nM] | IC50 (OCI-LY10; Homo sapiens, OCI-Ly10, 96 h) [nM] | also measured
C[C@@H](C#Cc1cccc2c1n(C)c(=O)n2C1CCC(=O)NC1=O)OC1CCN(C[C@H]2CC[C@H](n3cc(NC(=O)c4cnn5ccc(N6C[C@H]7C[C@@H]6CO7)nc45)c(C(F)F)n3)CC2)CC1 (some centres unmarked) [I-544] | 10 to 100 | 100 to 1000 | > 1000 | –
Cn1c(=O)n(C2CCC(=O)NC2=O)c2cccc(CCC(=O)N3CC4(CCN(C[C@H]5CC[C@H](n6cc(NC(=O)c7cnn8ccc(N9C[C@H]%10C[C@@H]9CO%10)nc78)c(C(F)F)n6)CC5)CC4)C3)c21 (some centres unmarked) [I-410] | – | – | > 1000 | DC50 (IRAK4 [1]; [5]): 10 to 100 nM; DC50 (IRAK4 [2]; [6]): < 10 nM
Cn1c(=O)n(C2CCC(=O)NC2=O)c2cccc(CCCOC3CCN(C[C@H]4CC[C@H](n5cc(NC(=O)c6cnn7ccc(N8C[C@H]9CC[C@@H](C8)O9)nc67)c(C(F)F)n5)CC4)CC3)c21 (some centres unmarked) [I-521] | 10 to 100 | < 10 | > 1000 | –
O=C1CCC(n2c3cccc(CCCN4CC5(CCN(C[C@H]6CC[C@H](n7cc(NC(=O)c8cnn9ccc(N%10C[C@H]%11C[C@@H]%10CO%11)nc89)c(C(F)F)n7)CC6)CC5)C4)c3c3cccnc32)C(=O)N1 (some centres unmarked) [I-519] | 10 to 100 | 100 to 1000 | 100 to 500 | –
CN(CCCOCCCNc1cccc2c1C(=O)N(C1CCC(=O)NC1=O)C2=O)C[C@H]1CC[C@H](n2cc3cc(NC(=O)c4cccc(C(F)(F)F)n4)c(C(C)(C)O)cc3n2)CC1 (some centres unmarked) [I-333] | – | – | 100 to 500 | DC50 (IRAK4 [1]; [5]): 10 to 100 nM; DC50 (IRAK4 [1]; OCI-LY10, 24 hrs, MSD, read-out: IRAK4 MSD degradation in OCI-LY10 at 24 hrs: Average external-Abs DC50): 10 to 100 nM; DC50 (IRAK4 [2]; [6]): < 10 nM
CN(CCCOCCCNc1cccc2c1C(=O)N(C1CCC(=O)NC1=O)C2=O)Cc1ccc(-n2cc(NC(=O)c3cnn4ccc(N5C[C@H]6C[C@@H]5CO6)nc34)c(C(F)F)n2)cc1 (some centres unmarked) [I-320] | – | – | – | DC50 (IRAK4 [1]; [5]): > 1000 nM; DC50 (IRAK4 [2]; [6]): 10 to 100 nM; IC50 (OCI-LY10): > 1000 nM
Cn1c(=O)n(C2CCC(=O)NC2=O)c2cccc(C#CCC3CCN(C[C@H]4CC[C@H](n5cc(NC(=O)c6cnn7ccc(N8CCCOCC8)nc67)c(C(F)F)n5)CC4)CC3)c21 (some centres unmarked) [I-523] | < 10 | < 10 | > 1000 | –
Cn1c(=O)n(C2CCC(=O)NC2=O)c2cccc(CCCC3CCN(C[C@H]4CC[C@H](n5cc(NC(=O)c6cnn7ccc(N8CCCOCC8)nc67)c(C(F)F)n5)CC4)CC3)c21 (some centres unmarked) [I-524] | < 10 | < 10 | > 1000 | –
CN1C(=O)C(C2CCC(=O)NC2=O)c2cc(C#CCOC3CCN(C[C@H]4CC[C@H](C5N=C(NC(=O)c6cnn7ccc(N8C[C@H]9C[C@@H]8CO9)nc67)C(C(F)F)=N5)CC4)CC3)ccc21 (some centres unmarked) [I-548] | 100 to 1000 | 100 to 1000 | – | –
C[C@H]1CN(c2ccn3ncc(C(=O)Nc4cn([C@H]5CC[C@H](CN6CCC(OCC#Cc7cccc8c7n(C)c(=O)n8C7CCC(=O)NC7=O)CC6)CC5)nc4C(F)F)c3n2)C[C@H](C)O1 (some centres unmarked) [I-536] | 10 to 100 | < 10 | – | –
CN(CCCC#Cc1ccc2c(c1)n(C)c(=O)n2C1CCC(=O)NC1=O)C[C@H]1CC[C@H](n2cc(NC(=O)c3cnn4ccc(N5C[C@H]6C[C@@H]5CO6)nc34)c(C(F)F)n2)CC1 (stereo partly drawn) [I-546, 5-((1R,4R)-2-oxa-5-azabicyclo[2.2.1]heptan-5-yl)-N-(3-(difluoromethyl)-1-((1r,4R)-4-(((5-(1-(2,6-dioxopiperidin-3-yl)-3-methyl-2-oxo-2,3-dihydro-1H-benzo [d]imidazol-5-yl)pent-4-yn-1-yl)(methyl)amino)methyl)cyclohexyl)-1H-pyrazol-4-yl)pyrazolo[1,5-a] pyrimidine-3-carboxamide] | 100 to 1000 | 10 to 100 | – | –
CN(CCCC#Cc1cccc2c1n(C)c(=O)n2C1CCC(=O)NC1=O)C[C@H]1CC[C@H](n2cc(NC(=O)c3cnn4ccc(N5C[C@H]6C[C@@H]5CO6)nc34)c(C(F)F)n2)CC1 (stereo partly drawn) [I-550, 5-((1R,4R)-2-oxa-5-azabicyclo[2.2.1]heptan-5-yl)-N-(3-(difluoromethyl)-1-((1r,4R)-4-(((5-(1-(2,6-dioxopiperidin-3-yl)-3-methyl-2-oxo-2,3-dihydro-1H-benzo [d]imidazol-4-yl)pent-4-yn-1-yl)(methyl)amino)methyl)cyclohexyl)-1H-pyrazol-4-yl)pyrazolo[1,5-a] pyrimidine-3-carboxamide] | 10 to 100 | < 10 | – | –
Cn1c(=O)n(C2CCC(=O)NC2=O)c2cccc(CCCOCCCC(CNC[C@H]3CC[C@H](n4cc(NC(=O)c5cnn6ccc(N7C[C@H]8C[C@@H]7CO8)nc56)c(C(F)F)n4)CC3)C(=O)O)c21 (some centres unmarked) [I-470] | 100 to 1000 | 100 to 1000 | – | –
C[C@@H]1CN(c2ccn3ncc(C(=O)Nc4cn([C@H]5CC[C@H](CN6CCC(OCC#Cc7cccc8c7n(C)c(=O)n8C7CCC(=O)NC7=O)CC6)CC5)nc4C(F)F)c3n2)C[C@H](C)O1 (some centres unmarked) [I-531] | 10 to 100 | < 10 | – | –
Cn1c(=O)n(C2CCC(=O)NC2=O)c2cccc(CCCC3CCN(C[C@H]4CC[C@H](C5N=C(NC(=O)c6cnn7ccc(N8C[C@H]9CC[C@@H](C8)O9)nc67)C(C(F)F)=N5)CC4)CC3)c21 (some centres unmarked) [I-535] | < 10 | < 10 | – | –
C[C@H](/C=C/c1cccc2c1n(C)c(=O)n2C1CCC(=O)NC1=O)OC1CCN(C[C@H]2CC[C@H](n3cc(NC(=O)c4cnn5ccc(N6C[C@H]7C[C@@H]6CO7)nc45)c(C(F)F)n3)CC2)CC1 (some centres unmarked) [I-559] | – | < 10 | > 1000 | –
C[C@@H]1CN(c2ccn3ncc(C(=O)Nc4cn([C@H]5CC[C@H](CN6CCC(OCC#Cc7cccc8c7n(C)c(=O)n8C7CCC(=O)NC7=O)CC6)CC5)nc4C(F)F)c3n2)C[C@@H](C)O1 (some centres unmarked) [I-527] | 10 to 100 | < 10 | – | –
Cn1c(=O)n(C2CCC(=O)NC2=O)c2cccc(CCCOC3CCN(C[C@H]4CC[C@H](n5ncc(NC(=O)c6cnn7ccc(N8CCOCC8)nc67)c5C(F)F)CC4)CC3)c21 (some centres unmarked) [I-468] | 100 to 1000 | 100 to 1000 | – | –
Cn1c(=O)n(C2CCC(=O)NC2=O)c2cccc(CCCOC3CCN(C[C@H]4CC[C@H](n5cc(NC(=O)c6cnn7ccc(N8CCOC(C)(C)C8)nc67)c(C(F)F)n5)CC4)CC3)c21 (some centres unmarked) [I-539] | 10 to 100 | < 10 | – | –
Cn1c(=O)n(C2CCC(=O)NC2=O)c2cccc(C#CCC3CCN(C[C@H]4CC[C@H](C5N=C(NC(=O)c6cnn7ccc(N8C[C@H]9CC[C@@H](C8)O9)nc67)C(C(F)F)=N5)CC4)CC3)c21 (some centres unmarked) [I-534] | 10 to 100 | < 10 | – | –
C[C@@H]1CC(OCCc2cccc3c2n(C)c(=O)n3C2CCC(=O)NC2=O)C[C@H](C)N1C[C@H]1CC[C@H](n2cc(NC(=O)c3cnn4ccc(N5C[C@H]6C[C@@H]5CO6)nc34)c(C(F)F)n2)CC1 (some centres unmarked) [I-558] | – | < 10 | > 1000 | –
Cn1c(=O)n(C2CCC(=O)NC2=O)c2cccc(C#CCOC3CCN(C[C@H]4CC[C@H](n5cc(NC(=O)c6cnn7ccc(N8CCOC9(CCC9)C8)nc67)c(C(F)F)n5)CC4)CC3)c21 (some centres unmarked) [I-541] | 10 to 100 | < 10 | – | –
